How the values were obtained:
Assay type in all cases: in vivo
[1] = Rat model of severe ischemic intestine with enteral oxygen carrier; details: 30 min ischemia, 17 ml solution for a 230 g rat, saturated for 10 min in oxygen
Description: More specifically, the feasibility was illustrated in a model with 30 min ischemia with perfluorodecalin solution 17 ml for 230 g rat) previously saturated for 10 min in oxygen. Thus, it should be noted that gastric, duodenal, jejunal, and ileal irrigation (or otherwise exposure) may be used as a stand-alone or supplemental treatment in human and other mammals. Most typically, the volume of the oxygen carrier will be adjusted such as to allow intimate contact with the oxygen carrier throughout the stomach, duodenum, jejunum, and/or ileum.

[2] = Case study: human patient with Fournier's gangrene, septic shock and multiple organ failure, treated with gabexate mesilate
Description: For example, as reported in a case study from the Cheng-Hsin General Hospital (that was approved by Human Ethics Committee and written consent by the patient), a heart transplant patient was regularly followed-up in the clinic with cyclosporine, mycophenolate, and prednisolone therapy for four years. The cyclosporine level was kept around 150, […] without evidence of rejection or infection during this period of follow-up. […] The wound was self-managed by the patient and deteriorated after one week. They were hospitalized and immediately admitted to the intensive care unit. At presentation, blood pressure was 80/40 mmHg in spite of aggressive fluid management with 2 liters of crystalloid and colloid fluid over 5 hours and vasopressor therapy with dopamine […]. […] They were intubated and received broad-spectrum antibiotics, including teichomycin, meropenem, and caspofungin. […] The diagnosis was Fournier's gangrene complicated with septic shock and multiple organ failure. Due to persistent septic shock and worsening septic markers, the patient received in addition a diverting colectomy and intravenous total parental nutrition. Furthermore, the patient also received a second wide debridement. The wound culture was positive with multiple drug resistance Pseudomonas aeruginosa and Bacteroides thetaiotaomicron.
Intravenous gabexate mesilate was given for severe septic shock and elevated amylase and lipase values (as markers for presence of pancreatic enzymes) at a dose of 3000 mg/day. At the same time, the patient stopped all enteral feeding and total parental nutrition was given with positive fluid balance of more than 1 liter per day.
Treatment was then switched to enteral gabexate mesilate infusion by continuous feeding into the stomach via nasogastric tube at a dose of 3000 mg/day in 2000 ml of normal saline. […] On the third day, the dose of gabexate mesilate was reduced to 300 mg/day in a fluid volume of 2000 ml and kept at this level for 10 days before discharge of the patient from the intensive care unit. […] Three days after enteral gabexate mesilate treatment they were extubated. On day 13, the immunosuppressant medication was restored with reduced dosage compared to the time before hospitalization and they were discharged from the ward after one month of admission. Five months after discharge at the time of this report writing the patient was alive.

digestive enzymes = experiment: Shock treatment in rats with an enteral protease inhibitor to block digestive enzymes
Description: With respect to suitable quantities of one or more protease inhibitors, the inventors observed in various animal models that shock treatment using protease inhibitors to block digestive enzymes requires for at least some protease inhibitors a minimum effective dosage that is substantially above the dosage contemplated in the '283 patent. For example, using tranexamic acid in rats, the minimum effective dose was 100 mg/kg (127 mM in the enteral solution with 17 ml to a 350 gm rat). Here, tranexamic acid was given to rats in 18 cc of fluid. The equivalent concentration in 2 liters (deemed suitable as human dose) is 3.2 grams. The maximum dose tested in rats was 1125 mg/kg, which is equivalent to 36 grams for a human dose in 2 liters of fluid to be administered into the lumen of the stomach or intestine.

[3] = enteral via nasogastric tube, 3000 mg/day, within two days

FC1(F)C(F)(F)C(F)(F)C2(F)C(F)(F)C(F)(F)C(F)(F)C(F)(F)C2(F)C1(F)F (stereo not shown) [perfluorodecalin, Perfluorodecalin]
intestinal damage / entry of digestive enzymes into the wall of the intestine [1]: minimize intestinal damage

[Ethyl p-(6-guanidinohexanoyloxy) benzoate] methanesulfonate [gabexate mesilate]
effectiveness of a single dose/day given via NG tube in human ([2]; 2 to 4 grams in 1 to 2 liter solution with GOLYTELY (PEG) or saline, over multiple days (up to 14)): very effective | blood pressure ([2]; continuous feeding into the stomach via nasogastric tube, 3000 mg/day in 2000 ml normal saline, within two days, minimal dose of dopamine): stabilized | amylase, lipase and white blood cell (WBC) count ([2]; enteral via nasogastric tube, 3000 mg/day, then 300 mg/day from the third day for 10 days, FIG. 1A): reduced to control values | glucose level [2, 3]: could be controlled by reduced dose of subcutaneous insulin | patient's level of conscience [2, 3]: increased | x-ray of the abdomen (ileus) ([2]; enteral via nasogastric tube, day 16 vs day 1, FIG. 1C): improved ileus | survival ([2]; five months after discharge): alive | plasma amylase and lipase values ([2]; intravenous, 3000 mg/day, over the next 12 hours, enteral feeding stopped, total parenteral nutrition): did not reduce | extubation ([2]; three days after enteral treatment): extubated

NC[C@H]1CC[C@H](C(=O)O)CC1 [tranexamic acid]
minimum effective dose, as concentration in the enteral solution (digestive enzymes; 17 ml to a 350 gm rat): 127 mM | equivalent of the minimum effective rat dose in 2 liters (human dose) (digestive enzymes; extrapolated from rat to a human dose in 2 liters): 3.2 grams | minimum effective dose (digestive enzymes; rats, enteral, given in 17-18 ml of fluid to a 350 gm rat): 100 mg/kg

— patent US11439611B2, “Administration of serine protease inhibitors to the stomach” (LEADING BIOSCIENCES, INC., priority 2010, dated 2022)
